# Several values for one entry are separate records, joined by “and”; a condition that tells them apart may be missing. Equal values may be shown once. Activity calls are given as the source filed them.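 Rule for the calls: active = IC50 at or below 10 µM; inactive = IC50 above 10 µM.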
# System: NIH 3T3 viability, CellTiter-Glo ATP luminescence
# Assay: 3T3 cell viability loss – luminescence, dose response, cytotoxicity control for TPT1 inhibitor project, late-stage follow-up (AID 434934)
row,Structure (SMILES),IC50
1,Cc1[nH]n(-c2ccc(S(=O)(=O)O)cc2)c(=O)c1N[N-]c1ccc(C2=CC(=O)/C(=N\[N-]c3ccc4c(S(=O)(=O)O)cc(S(=O)(=O)O)c(N)c4c3O)C=C2)cc1O.[Cu+].[Cu+],1.82 µM
2,Cc1ccccc1N1C(=O)/C(=C/c2ccco2)C(=O)NC1=S,46.1 µM (inactive) and 34.3 µM (inactive)
3,Cc1cc(C)n(Cc2ccc(C(=O)NN=Cc3ccc(-c4ccc([N+](=O)[O-])cc4)o3)o2)n1,> 79.4 µM (inactive)
4,NS(=O)(=O)c1cc(C(=O)NC2CCSc3ccccc32)ccc1Cl (stereo not given),> 79.4 µM (inactive)
5,Cc1ccc(N2C(=O)NC(=O)/C(=C\c3ccc([N+](=O)[O-])o3)C2=O)cc1,23.2 µM (inactive)
6,OC(Cn1cncn1)(Cn1cncn1)c1ccc(F)cc1F,> 26.5 µM (inactive)
7,NC(=O)c1cc[n+](CC2=C(C(=O)O)N3C(=O)[C@@H](NC(=O)C(c4ccccc4)S(=O)(=O)O)[C@H]3SC2)cc1 (stereo not given in full),> 79.4 µM (inactive)
8,CC1=C(C#N)C(=O)N(C2CCS(=O)(=O)C2)C(=O)/C1=C\c1ccco1 (stereo not given),20.4 µM (inactive)
9,O=c1oc2c(O)c(O)cc3c(=O)oc4c(O)c(O)cc1c4c23,> 26.5 µM (inactive)
10,COc1ccc(OC)c(N2C(=O)/C(=C/c3ccco3)C(=O)NC2=S)c1,73.9 µM (inactive)

# From PubChem BioAssay AID434934 (The Scripps Research Institute Molecular Screening Center, 2010)
